The text below walks through data of patent US20190315966A1, “COMPOUNDS FOR THE DETECTION OF SENESCENT CELLS” (THE UNIVERSITY OF MANCHESTER, priority 2016, published 2019).

Data set [1] concerns senescent cells in irradiated human laryngeal tumors. In words: Histochemical staining of paraffin embedded, formalin fixed tissue sections, irradiated human laryngeal tumors. The conditions noted are these: irradiated human laryngeal tumor sections; stain in 70% ethanol, 10 min; microscopy. Here is the method: (§1) Tissue sections were obtained from paraffin embedded, formalin fixed: (a) irradiated human laryngeal tumors and (b) mouse lung adenomas, with established presence of senescent cells [as described in Georgakopoulou et al, Aging (Albany N.Y.) 2013]. Subsequently, they were immobilized on glass microscopy slides by standard procedures and processed as follows: • a. Deparaffinization for 5 min at room temperature in xylene. • b. Gradual rehydration in solutions of descending concentration of ethanol (100%, 80%, 70%, 50% v/v) and finally in TBS (Tris-buffered saline) or PBS (Phosphate-buffered saline) solution. • c. The SSB dye was diluted in 70% ethanol (v/v), filtered and then applied on tissue sections for 10 min. • d. Quick wash in 50% (v/v) ethanol. • e. Transfer and wash in TBS or PBS solution. • f. Counterstain with Hematoxylin or Nuclear Fast Red, followed by mounting with glycerol and sealed with a cover slip. • g. Microscopy observation.
(§2) Tissue sections were obtained from paraffin embedded, formalin fixed: (a) irradiated human laryngeal tumors and (b) mouse lung adenomas. Subsequently, they were immobilized on glass microscopy slides by standard procedures and processed as follows: • a. Deparaffinization for 5 min at room temperature in xylene. • b. […]

Data set [2] has as its system senescent cells in human thymus. The data set is described as follows: Histochemical staining of human thymus tissue sections (cortex and medulla). The settings on record: cortex and medulla of the human thymus. The protocol:
as §1, with “fixed,” for “fixed: (a) irradiated”, “thymus” for “laryngeal tumors”, “specifically from the cortex and medulla” for “(b) mouse lung adenomas, with established presence”, “this organ.” for “senescent cells [as described in Georgakopoulou et al, Aging (Albany N.Y.) 2013].”, “LG9 SBB-analogue” for “SSB dye”

The subject of data set [3] is lipofuscin rich cells in human seminal vesicle and human liver with steatohepatitis. The data set is described as follows: Control staining of reference tissues with high lipofuscin content (seminal vesicle, liver with steatohepatitis). The conditions noted are these: human seminal vesicle and liver with steatohepatitis sections. The protocol: as §1, with “(a)” for “(a) irradiated”, “seminal vesicle” for “laryngeal tumors”, “human liver” for “mouse lung adenomas,”, “steatohepatitis that have high content” for “established presence”, “lipofusin making them ideal reference (control) tissues to test the SBB assay.” for “senescent cells [as described in Georgakopoulou et al, Aging (Albany N.Y.) 2013].”
Tissue sections were obtained from paraffin embedded, formalin fixed: (a) human seminal vesicle and (b) human liver with steatohepatitis that have high content of lipofusin making them ideal reference (control) tissues to test the performance of the LG9 compound. Subsequently, they were immobilized on glass microscopy slides by standard procedures and processed as follows: • a. Deparaffinization for 5 min at room temperature in xylene. • b. […]

The test system of data set [4] is senescent cells in mouse lung adenomas. In words: Histochemical staining of paraffin embedded, formalin fixed tissue sections, mouse lung adenomas. The settings on record: mouse lung adenoma sections; stain in 70% ethanol, 10 min; microscopy. The protocol:
as §1, §2

Data set [5] can be described thus: Ethanol solubility of the stain in the histochemical method. It counts as physicochemical. The settings on record: stain diluted in ethanol / 70% ethanol (v/v) and filtered.
For data set [6], the system named is senescent cells in liver biopsies. In words: Histochemical staining of liver tissue sections with high content of lipofuscin. Here is the method: as §1, with “fixed liver biopsies that have high content” for “fixed: (a) irradiated human laryngeal tumors and (b) mouse lung adenomas, with established presence”, “lipofusin.” for “senescent cells [as described in Georgakopoulou et al, Aging (Albany N.Y.) 2013].”, “LG46 or LG48 analogue” for “SSB dye”

For data set [7] the following is noted: per Georgakopoulou et al, Aging 2013; cited from earlier work.
The next data set concerns Saos2-p53 Tet-On cells. In words: Histochemical staining of cell spreads on cover slips. Format: cell-based. The settings on record: Saos2-p53 Tet-On cells after p53 induction; stain in ethanol, 10 min. The protocol: Saos2-p53 Tet-On cells were grown on cover slips and collected after p53 induction to induce senescence. Cover slips were treated as follows: • a. Fixation in ice-cold ethanol or methanol for 4 min. • b. Application of SSB Dye, diluted in ethanol and filtered, on cells for 10 min. • c. Quick wash in 50% (v/v) ethanol. • d. Transfer and wash in TBS or PBS solution. • e. Counterstain with Nuclear Fast Red, followed by mounting with glycerol and sealing with a cover slip. • f. Microscopy observation.
Saos2-p53 Tet-On cells were grown on cover slips and collected […] after p53 induction to induce senescence. Cover slips were treated as follows: • a. Fixation in ice-cold ethanol or methanol for 4 min. • b. Application of the LG9 SBB-analogue, diluted in ethanol and filtered, on cells for 10 min. • c. Quick wash in 50% (v/v) ethanol. • d. Transfer and wash in TBS or PBS solution. • e. Counterstain with Nuclear Fast Red, followed by mounting with glycerol and sealing with a cover slip. • f. Microscopy observation.

For `CC1(CO)Nc2cccc3c(/N=N/c4ccc(/N=N/c5ccccc5)c5ccccc45)ccc(c23)N1` (stereo not drawn) [LG9, (2-methyl-6-((E)-(4-((E)-phenyldiazenyl)naphthalen-1-yl)diazenyl)-2,3-dihydro-1H-perimidin-2-yl)methanol], the “staining of senescent cells” value in data set [1], in data set [2] and in data set [4] was “stained senescent cells” throughout. Besides, the “staining of lipofuscin rich cells” value in data set [3] is recorded as “stained cells”. Moreover, the “ethanol solubility in the staining method” value in [5] is listed as “does not encounter the ethanol solubility problems”.

Turning to `CC1(C)Nc2cccc3c(/N=N/c4ccc(/N=N/c5ccc(CCO)cc5)c5ccccc45)ccc(c23)N1` [LG48, 2-(4-((E)-(4-((E)-(2,2-dimethyl-2,3-dihydro-1H-perimidin-6-yl)diazenyl)naphthalen-1-yl)diazenyl)phenyl)ethanol], in data set [6], the staining of cells entry is “stained cells”. Further, in data set [5], the “ethanol solubility in the staining method” value is “does not encounter the ethanol solubility problems”.

Take `CC1(C)Nc2cccc3c(/N=N/c4ccc(/N=N/c5cccc(O)c5)c5ccccc45)ccc(c23)N1` [LG46, 3-((E)-(4-((E)-(2,2-dimethyl-2,3-dihydro-1H-perimidin-6-yl)diazenyl)naphthalen-1-yl)diazenyl)phenol]: the staining of cells result in data set [6] was “stained cells”. Also, the “ethanol solubility in the staining method” value in data set [5] is “does not encounter the ethanol solubility problems”.

As for `CC1(CCCO)Nc2cccc3c(/N=N/c4ccc(/N=N/c5ccccc5)c5ccccc45)ccc(c23)N1` (stereo not drawn) [Example 5, 3-(2-Methyl-6-((E)-(4-((E)-phenyldiazenyl)naphthalen-1-yl)diazenyl)-2,3-dihydro-1H-perimidin-2-yl)propan-1-ol], the melting point fell in the range of 124 to 126 °C.

As for `CC1(C)Nc2cccc3c(/N=N/c4ccc(/N=N/c5ccccc5)c5ccccc45)ccc(c23)N1` [SBB, Sudan Black B, reference compound], the “staining of senescent cells” value (in data set [1]; with Saos2-p53 Tet-On cells; in [4]) was “clearly stained” each time. In addition, in data set [7], the “ethanol solubility of the SBB stain” value is “ethanol solubility problems”. Besides, the “staining of lipofuscin rich cells” value in [3] was “stained cells”.
